This is an account of results in PubChem BioAssay AID248 (DTP/NCI, 2004).

The experiment deals with L1210 leukemia ip in BDF1 mice, survival T/C. Briefly: NCI In Vivo Anticancer Drug Screen. Data for tumor model L1210 Leukemia (intraperitoneal) in B6D2F1 (BDF1) mice. The following applies: endpoint: mean survival time, higher = longer survival. The method, boiled down: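 Tumor was transplanted into mice, which were then dosed with test compound or vehicle alone. Survival was recorded for each group, and the treated figure was expressed relative to the control figure.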

[1] abbreviates: dose: 100.0 mg/kg/injection, schedule: Q01DX009 (ip), vehicle: saline with Tween-80.
Where [2] appears, read: dose: 100.0 mg/kg/injection, schedule: Q04DX003 (ip), vehicle: saline with Tween-80.
The mark [3] stands for this setting: dose: 200.0 mg/kg/injection, schedule: Q01DX009 (ip), vehicle: saline with Tween-80.
[4] abbreviates: dose: 200.0 mg/kg/injection, schedule: Q04DX003 (ip), vehicle: saline with Tween-80.
Where [5] appears, read: dose: 100.0 mg/kg/injection, schedule: Q04DX003 (ip), vehicle: saline.
Where [6] appears, read: dose: 50.0 mg/kg/injection, schedule: Q01DX001 (ip), vehicle: saline.
Setting [7] is: dose: 100.0 mg/kg/injection, schedule: Q01DX001 (ip), vehicle: saline.
[8] abbreviates: dose: 200.0 mg/kg/injection, schedule: Q01DX001 (ip), vehicle: saline.
[9] abbreviates: dose: 400.0 mg/kg/injection, schedule: Q01DX001 (ip), vehicle: saline.
Setting [10] is: dose: 200.0 mg/kg/injection, schedule: Q04DX003 (ip), vehicle: saline.
Where [11] appears, read: dose: 400.0 mg/kg/injection, schedule: Q04DX003 (ip), vehicle: saline.
The mark [12] stands for this setting: dose: 100.0 mg/kg/injection, schedule: Q04DX002 (ip), vehicle: saline with Tween-80.
Setting [13] is: dose: 200.0 mg/kg/injection, schedule: Q04DX002 (ip), vehicle: saline with Tween-80.
Where [14] appears, read: dose: 400.0 mg/kg/injection, schedule: Q04DX002 (ip), vehicle: saline with Tween-80.
The mark [15] stands for this setting: dose: 400.0 mg/kg/injection, schedule: Q04DX003 (ip), vehicle: saline with Tween-80.

SMILES strings stand for the structures. Inconclusive results and toxic doses are left out.

Consider `CCNc1nc(N)nc2n[nH]nc12`, for which the T/C (dose: 50.0 mg/kg/injection, schedule: Q01DX009 (ip), vehicle: saline with Tween-80) is 95 % of control; the T/C (dose: 50.0 mg/kg/injection, schedule: Q04DX003 (ip), vehicle: saline with Tween-80) is 98 % of control; the T/C (dose: 100.0 mg/kg/injection, schedule: Q01DX001 (ip), vehicle: saline with Tween-80) was 101 % of control; the T/C under setting [1] is 89 % of control; the T/C under setting [2] was 101 % of control; the T/C (dose: 200.0 mg/kg/injection, schedule: Q01DX001 (ip), vehicle: saline with Tween-80) is 94 % of control. Also, the T/C is 89 % of control under setting [3] and 98 % of control under setting [4].
For the compound `CN(C)C(=S)Oc1ccc(C(=O)O)cc1`, the T/C was 86 % of control (dose: 100.0 mg/kg/injection, schedule: Q01DX001 (ip), vehicle: Klucel (hydroxypropylcellulose) (HPC)); 90 % of control (dose: 200.0 mg/kg/injection, schedule: Q01DX001 (ip), vehicle: Klucel (hydroxypropylcellulose) (HPC)); 88 % of control (dose: 400.0 mg/kg/injection, schedule: Q01DX001 (ip), vehicle: Klucel (hydroxypropylcellulose) (HPC)).
Turning to `CC(C)(C)NNC(C)(C)C`, the T/C by setting is: (dose: 9.38 mg/kg/injection, schedule: Q01DX001 (ip), vehicle: other) 102 % of control; (dose: 18.75 mg/kg/injection, schedule: Q01DX001 (ip), vehicle: other) 96 % of control; (dose: 37.5 mg/kg/injection, schedule: Q01DX001 (ip), vehicle: other) 96 % of control.
Turning to `Nc1ccc(-c2ccc(N)c(Br)c2)cc1Br`, the T/C by setting is: (dose: 100.0 mg/kg/injection, schedule: Q04DX002 (ip), vehicle: Klucel (hydroxypropylcellulose) (HPC)) 99 % of control; (dose: 200.0 mg/kg/injection, schedule: Q04DX002 (ip), vehicle: Klucel (hydroxypropylcellulose) (HPC)) 93 % of control.
For `Cc1cc(NC(=O)SCCOC(=O)COc2ccc(Cl)cc2)ccc1Cl`, the T/C under setting [1] was 94 % of control; the T/C under setting [3] is 88 % of control; the T/C (dose: 400.0 mg/kg/injection, schedule: Q01DX009 (ip), vehicle: saline with Tween-80) was 90 % of control.
Turning to `O=C(C1C2C=CC(C2)C1C(=O)N1CCCCC1)N1CCCCC1` (stereo not drawn), the T/C by setting is: (dose: 25.0 mg/kg/injection, schedule: Q04DX003 (ip), vehicle: saline) 103 % of control; (dose: 50.0 mg/kg/injection, schedule: Q04DX003 (ip), vehicle: saline) 95 % of control; under setting [2], 111 % of control; under setting [5], 98 % of control; under setting [4], 86 % of control.
With `CO/N=C1/C=C(C)C(=O)C(C)=C1C`, the T/C is 94 % of control under setting [6]; 97 % of control under setting [7]; 102 % of control (dose: 100.0 mg/kg/injection, schedule: Q01DX009 (ip), vehicle: Klucel (hydroxypropylcellulose) (HPC)); 97 % of control (dose: 100.0 mg/kg/injection, schedule: Q04DX003 (ip), vehicle: Klucel (hydroxypropylcellulose) (HPC)); 105 % of control under setting [8]; 98 % of control (dose: 200.0 mg/kg/injection, schedule: Q01DX009 (ip), vehicle: Klucel (hydroxypropylcellulose) (HPC)). Moreover, the T/C was 92 % of control (dose: 200.0 mg/kg/injection, schedule: Q04DX003 (ip), vehicle: Klucel (hydroxypropylcellulose) (HPC)); 94 % of control under setting [9]; 95 % of control (dose: 400.0 mg/kg/injection, schedule: Q01DX009 (ip), vehicle: Klucel (hydroxypropylcellulose) (HPC)); 101 % of control (dose: 400.0 mg/kg/injection, schedule: Q04DX003 (ip), vehicle: Klucel (hydroxypropylcellulose) (HPC)).
For the compound `O=NN(CCCl)C(=O)N(C1CCCCC1)C1CCCCC1`, the T/C reads like this: (dose: 177.0 mg/kg/injection, schedule: Q01DX009 (ip), vehicle: carboxymethylcellulose (CMC)) 121 % of control; (dose: 400.0 mg/kg/injection, schedule: Q01DX009 (ip), vehicle: carboxymethylcellulose (CMC)) 117 % of control; (dose: 600.0 mg/kg/injection, schedule: Q01DX009 (ip), vehicle: carboxymethylcellulose (CMC)) 166 % of control.
As for `O=C1c2ccccc2C(=O)N1[N+](=O)[O-]`, the T/C was 101 % of control under setting [6], 107 % of control under setting [7], 107 % of control under setting [8] and 103 % of control under setting [9].
Consider `Cc1ccc(-c2cc(-c3ccccc3)n(-c3ccccc3)n2)cc1`, for which the T/C (dose: 100.0 mg/kg/injection, schedule: Q01DX009 (ip), vehicle: other) is 103 % of control; the T/C (dose: 200.0 mg/kg/injection, schedule: Q01DX009 (ip), vehicle: other) is 96 % of control; the T/C (dose: 400.0 mg/kg/injection, schedule: Q01DX009 (ip), vehicle: other) is 95 % of control.
On to `Cc1ccc(S(=O)(=O)c2ccccc2)cc1`, for which the T/C is, setting by setting: under setting [5], 103 % of control; under setting [10], 91 % of control; under setting [11], 95 % of control.
As for `CC(=O)[O][Hg][c]1ccc(Cl)cc1`, the T/C was 89 % of control (dose: 5.0 mg/kg/injection, schedule: Q01DX001 (ip), vehicle: saline); 94 % of control (dose: 10.0 mg/kg/injection, schedule: Q01DX001 (ip), vehicle: saline); 96 % of control (dose: 20.0 mg/kg/injection, schedule: Q01DX001 (ip), vehicle: saline); 89 % of control (dose: 40.0 mg/kg/injection, schedule: Q01DX001 (ip), vehicle: saline); 91 % of control (dose: 80.0 mg/kg/injection, schedule: Q01DX001 (ip), vehicle: saline).
As to `O=C(NCCO)Nc1cccc2ccccc12`, the T/C is 95 % of control under setting [7], 95 % of control under setting [8] and 90 % of control under setting [9].
Regarding `CC(C)CC(=O)c1ccccc1`, the T/C (dose: 50.0 mg/kg/injection, schedule: Q04DX002 (ip), vehicle: saline) was 104 % of control; the T/C (dose: 100.0 mg/kg/injection, schedule: Q04DX002 (ip), vehicle: saline) is 97 % of control; the T/C (dose: 200.0 mg/kg/injection, schedule: Q04DX002 (ip), vehicle: saline) was 111 % of control.
In the case of `CC1CC(NC(=S)NC(=O)c2ccccc2Cl)CC(C)(C)C1` (stereo not drawn), the T/C under setting [12] is 98 % of control, the T/C under setting [13] was 113 % of control and the T/C under setting [14] was 102 % of control.
In the case of `CC(=O)NC1CCC(Cc2ccccc2)CC1` (stereo not drawn), the T/C is 97 % of control under setting [12], 90 % of control under setting [13] and 116 % of control under setting [14].
Turning to `COc1ccc2c(c1)NP(=S)(c1ccccc1)N2` (stereo not drawn), the T/C runs as follows: (dose: 50.0 mg/kg/injection, schedule: Q01DX001 (ip), vehicle: gum acacia) 101 % of control; (dose: 100.0 mg/kg/injection, schedule: Q01DX001 (ip), vehicle: gum acacia) 91 % of control; (dose: 100.0 mg/kg/injection, schedule: Q01DX009 (ip), vehicle: gum acacia) 91 % of control; (dose: 200.0 mg/kg/injection, schedule: Q01DX001 (ip), vehicle: gum acacia) 100 % of control; (dose: 200.0 mg/kg/injection, schedule: Q01DX009 (ip), vehicle: gum acacia) 91 % of control; (dose: 400.0 mg/kg/injection, schedule: Q01DX009 (ip), vehicle: gum acacia) 91 % of control.
On to `O=C(O)Cc1ccc2ccccc2c1Br`, for which the T/C under setting [5] is 97 % of control, the T/C under setting [10] was 95 % of control and the T/C under setting [11] is 90 % of control.
Regarding `O=[N+]([O-])c1ccc(CCBr)cc1`, the T/C was 96 % of control (dose: 50.0 mg/kg/injection, schedule: Q01DX001 (ip), vehicle: carboxymethylcellulose (CMC)); 94 % of control (dose: 100.0 mg/kg/injection, schedule: Q01DX001 (ip), vehicle: carboxymethylcellulose (CMC)); 100 % of control (dose: 200.0 mg/kg/injection, schedule: Q01DX001 (ip), vehicle: carboxymethylcellulose (CMC)); 105 % of control (dose: 400.0 mg/kg/injection, schedule: Q01DX001 (ip), vehicle: carboxymethylcellulose (CMC)).
Take `CC(=O)OC1CCSCC1`: the T/C is 101 % of control under setting [2], 93 % of control under setting [4] and 103 % of control under setting [15].
For `CCOC(=O)C(=O)c1c[nH]c2ccccc12` the same measures were 97 % of control, 97 % of control and 95 % of control.
